The record followed here is patent US20230279025A1, “KRAS G12D INHIBITORS” (Mirati Therapeutics, Inc., priority 2020, published 2023).

A value given as a limit tells only on which side of the number the result lay.

The target in test [1] is T1, KRas G12D (Homo sapiens (Human), UniProt P01116, G12D). The test is described as follows: KRas G12D Surface Plasmon Resonance (SPR) Binding Assay. As to conditions: Biacore T200, immobilized biotinylated KRAS protein, 1:1 binding model. On the procedure: Briefly, 1L of 1.05X HBS-Mg buffer (262.5 mM Bioultra Hepes, pH 7.5, 157.5 mM NaCl, 105 mM MgCl2, 0.525 mM TCEP, 0.0305% Brij-35) was prepared and filter sterilized using a 0.22 μm bottle top filter. Approximately 50 mL of 1.05X HBS-Mg buffer was removed and saved for future dilutions. A 50 mL aliquot of DMSO (Sigma Aldrich DMSO Lot. #SHBK2079) was added and continued to stir for 10 minutes, creating the final 1.0X HBS-Mg buffer (250 mM Bioultra Hepes pH 7.5, 150 mM NaCl, 100 mM MgCl2, 0.5 mM TCEP, 0.03% Brij-35).
Biacore T200 instrument was primed using 1.0X HBS-Mg buffer before docking a GE Streptavidin (SA) chip and then primed two additional times prior to beginning the immobilization step. All immobilized protein mixtures were created using 3-5 mg/mL Biotinylated Avidin-tagged KRAS protein using the following immobilization settings: SA chip type, 1 flow cells per cycle, 720 second contact time, and 5 ul/min flow rate. Normalization of the detector was also performed during the immobilization step using the GE BiaNormalize solution.
All compounds were diluted to 10 mM in 100% DMSO prior to being diluted 20X in 1.05X buffer. Another 10X dilution was created using 1.0X buffer prior to performing a series of 3X dilutions to create a compound concentration curve using the following assay settings: 20C analysis temperature, General Settings=10 Hz data collection rate and multi-detection; Assay Steps=all set to LMW kinetics; Cycle Types=LMW kinetics (60 s contact time, 120 s dissociation time, 100 ul/min flow rate, extra wash after injection with 50% DMSO, flow path 1,2,3,4); Flow path detection=2-1, 4-3). Data evaluation was performed using the Biacore T200 Evaluation software and data fit to 1:1 binding model. ND=not determined.
Target sequence in this assay (P01116-2 other isoform, or with tags, fused parts or gaps G12D): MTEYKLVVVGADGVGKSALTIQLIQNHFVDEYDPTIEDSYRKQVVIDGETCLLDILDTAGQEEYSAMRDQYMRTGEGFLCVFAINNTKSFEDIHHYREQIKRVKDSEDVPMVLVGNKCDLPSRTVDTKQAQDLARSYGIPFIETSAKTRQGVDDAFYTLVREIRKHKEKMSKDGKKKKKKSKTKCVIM

The target of test [2] is T1, KRas G12D. The test is described as follows: KRas G12D Binding Assay (TR-FRET displacement of Cy5 labelled tracer). The conditions noted are these: GDP-loaded KRAS G12D (amino acids 1:169), 60 minute incubation at 22° C. As for the experimental part: After a 60 minute incubation at 22° C., the reaction was measured using a PerkinElmer EnVision multimode plate reader via TR-FRET dual wavelength detection, and the percent of control (POC) calculated using a ratiometric emission factor. […] The POC values were fit to a 4-parameter logistic curve and the IC50 value was determined as the concentration where the curve crosses 50 POC.
ND stands for “not determined.”
Target sequence in this assay (P01116 other isoform, or with tags, fused parts or gaps G12D): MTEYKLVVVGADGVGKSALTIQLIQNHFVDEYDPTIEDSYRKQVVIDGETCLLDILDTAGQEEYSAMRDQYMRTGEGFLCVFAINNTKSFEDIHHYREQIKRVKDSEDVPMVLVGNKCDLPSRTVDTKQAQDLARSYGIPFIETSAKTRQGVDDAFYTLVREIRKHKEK
(In general: Time-resolved FRET reads energy transfer from a long-lived donor to a nearby acceptor.)

Broadly, the Kd is the constant that tells how readily two partners part at equilibrium. A lower Kd goes with a tighter complex. For orientation: IC50 means the concentration at which inhibition is half-maximal. A lower IC50 goes with greater potency.

Consider `CN1CCC[C@H]1CCOc1nc(N2C[C@H]3CC[C@@H](C2)N3)c2cnc(-c3cc(O)cc4ccccc34)c(F)c2n1` [Example 10, 4-(4-((1R,5S)-3,8-diazabicyclo[3.2.1]octan-3-yl)-8-fluoro-2-(2-((S)-1-methylpyrrolidin-2-yl)ethoxy)pyrido[4,3-d]pyrimidin-7-yl)naphthalen-2-ol], for which, at KRas G12D [1], binding was put at a Kd of 33.8 nM. On KRas G12D [1], `CCN1CCC[C@H]1COc1nc(N2C[C@H]3CC[C@@H](C2)N3)c2cnc(-c3cc(O)cc4ccccc34)c(F)c2n1` [Example 11, 4-(4-((1R,5S)-3,8-diazabicyclo[3.2.1]octan-3-yl)-2-(((S)-1-ethylpyrrolidin-2-yl)methoxy)-8-fluoropyrido[4,3-d]pyrimidin-7-yl)naphthalen-2-ol] gave a Kd of 4.9 nM. In turn, `Oc1cc(-c2ncc3c(N4C[C@H]5CC[C@@H](C4)N5)nc(OC[C@@H]4CCCN4Cc4ccccc4)nc3c2F)c2ccccc2c1` [Example 12, 4-(2-(((S)-1-benzylpyrrolidin-2-yl)methoxy)-4-((1R,5S)-3,8-diazabicyclo[3.2.1]octan-3-yl)-8-fluoropyrido[4,3-d]pyrimidin-7-yl)naphthalen-2-ol] came in with a Kd at KRas G12D [1] of 11 nM. Same read-out and setting: as for `CN(C)C(=O)CCOc1nc(N2C[C@H]3CC[C@@H](C2)N3)c2cnc(-c3cc(O)cc4ccccc34)c(F)c2n1` [Example 13, 3-((4-((1R,5S)-3,8-diazabicyclo[3.2.1]octan-3-yl)-8-fluoro-7-(3-hydroxynaphthalen-1-yl)pyrido[4,3-d]pyrimidin-2-yl)oxy)-N,N-dimethylpropanamide], the figure is 511 nM; as for `CN1CCC[C@H]1COc1nc(N2C[C@H]3CC[C@@H](C2)N3)c2cnc(-c3cccc4c3CCC4)c(F)c2n1` [Example 23, 4-((1R,5S)-3,8-diazabicyclo[3.2.1]octan-3-yl)-7-(2,3-dihydro-1H-inden-4-yl)-8-fluoro-2-(((S)-1-methylpyrrolidin-2-yl)methoxy)pyrido[4,3-d]pyrimidine], 807 nM.

Compound `CC(Oc1nc(N2C[C@H]3CC[C@@H](C2)N3)c2cnc(-c3cc(O)cc4ccccc34)c(F)c2n1)C1CCCN1C` (stereo partly drawn) [Example 27, 4-(4-((1R,5S)-3,8-diazabicyclo[3.2.1]octan-3-yl)-8-fluoro-2-(1-(1-methylpyrrolidin-2-yl)ethoxy)pyrido[4,3-d]pyrimidin-7-yl)naphthalen-2-ol] showed an equilibrium dissociation constant (Kd) at KRas G12D [1] of 25.9 nM. Regarding `CN1C[C@H](C(F)(F)F)C[C@H]1COc1nc(N2C[C@H]3CC[C@@H](C2)N3)c2cnc(-c3cc(O)cc4ccccc34)c(F)c2n1` [Example 28, 4-(4-((1R,5S)-3,8-diazabicyclo[3.2.1]octan-3-yl)-8-fluoro-2-(((2S,4R)-1-methyl-4-(trifluoromethyl)pyrrolidin-2-yl)methoxy)pyrido[4,3-d]pyrimidin-7-yl)naphthalen-2-ol], at KRas G12D [1], binding was characterised by a dissociation constant (Kd) of 58.7 nM.

On KRas G12D [1], `COc1cccnc1CCOc1nc(N2C[C@H]3CC[C@@H](C2)N3)c2cnc(-c3cc(O)cc4ccccc34)c(F)c2n1` [Example 140, 4-(4-((1R,5S)-3,8-diazabicyclo[3.2.1]octan-3-yl)-8-fluoro-2-(2-(3-methoxypyridin-2-yl)ethoxy)pyrido[4,3-d]pyrimidin-7-yl)naphthalen-2-ol] yielded a Kd of 5590 nM. The same measure, in the same setting: the value for `CN1CCC[C@H]1COc1nc(N2CC3CCC(C=O)(C2)N3)c2cnc(-c3cc(O)cc4ccccc34)c(F)c2n1` (stereo partly drawn) [Example 214, 3-(8-fluoro-7-(3-hydroxynaphthalen-1-yl)-2-(((S)-1-methylpyrrolidin-2-yl)methoxy)pyrido[4,3-d]pyrimidin-4-yl)-3,8-diazabicyclo[3.2.1]octane-1-carbaldehyde] was 284 nM; that for `CN1CCC[C@H]1COc1nc(N2CC3CCC(CO)(C2)N3)c2cnc(-c3cc(O)cc4ccccc34)c(F)c2n1` (stereo partly drawn) [Example 215, 4-(8-fluoro-4-(1-(hydroxymethyl)-3,8-diazabicyclo[3.2.1]octan-3-yl)-2-(((S)-1-methylpyrrolidin-2-yl)methoxy)pyrido[4,3-d]pyrimidin-7-yl)naphthalen-2-ol bis(2,2,2-trifluoroacetate)] was 70.4 nM. As to `Cc1cc2sc(N)nc2c(-c2ncc3c(N4C[C@H]5CC[C@@H](C4)N5)nc(OC[C@@]45CCCN4C[C@H](F)C5)nc3c2F)c1C` [Example 457, 4-(4-((1R,5S)-3,8-diazabicyclo[3.2.1]octan-3-yl)-8-fluoro-2-(((2R,7aS)-2-fluorohexahydro-1H-pyrrolizin-7a-yl)methoxy)pyrido[4,3-d]pyrimidin-7-yl)-5,6-dimethylbenzo[d]thiazol-2-amine], the 50% inhibitory concentration (IC50) on KRas G12D [2] amounted to 475 nM. `Cc1ccc2sc(N)nc2c1-c1ncc2c(N3C[C@H]4CC[C@@H](C3)N4)nc(OCC34CCCN3CCC4)nc2c1F` [Example 458, 4-(4-((1R,5S)-3,8-diazabicyclo[3.2.1]octan-3-yl)-8-fluoro-2-((hexahydro-1H-pyrrolizin-7a-yl)methoxy)pyrido[4,3-d]pyrimidin-7-yl)-5-methylbenzo[d]thiazol-2-amine] showed an IC50 on KRas G12D [2] of 143 nM.

Consider `Fc1ccc2cccc(-c3ncc4c(N5C[C@H]6CC[C@@H](C5)N6)nc(OCC56CCCN5CCC6)nc4c3F)c2c1` [Example 460, 4-((1R,5S)-3,8-diazabicyclo[3.2.1]octan-3-yl)-8-fluoro-7-(7-fluoronaphthalen-1-yl)-2-((hexahydro-1H-pyrrolizin-7a-yl)methoxy)pyrido[4,3-d]pyrimidine], for which the half-inhibitory concentration (IC50) on KRas G12D [2] turned out to be 0.027 nM. Turning to `Oc1cc(-c2ncc3c(N4CC5CCC(C4)N5)nc(OCCN4C[C@@H]5C[C@H]4CO5)nc3c2F)c2ccccc2c1` [Example 461, 4-(2-(2-((1S,4S)-2-oxa-5-azabicyclo[2.2.1]heptan-5-yl)ethoxy)-4-((1R,5S)-3,8-diazabicyclo[3.2.1]octan-3-yl)-8-fluoropyrido[4,3-d]pyrimidin-7-yl)naphthalen-2-ol], the IC50 on KRas G12D [2] is 0.062 nM. The compound `O=C1CCC2(COc3nc(N4CC5CCC(C4)N5)c4cnc(-c5cc(O)cc6ccccc56)c(F)c4n3)CCCN12` (centres unmarked) [Example 462, 7a-(((4-(3,8-diazabicyclo[3.2.1]octan-3-yl)-8-fluoro-7-(3-hydroxynaphthalen-1-yl)pyrido[4,3-d]pyrimidin-2-yl)oxy)methyl)tetrahydro-1H-pyrrolizin-3(2H)-one] had a half-inhibitory concentration (IC50) at KRas G12D [2] of 0.751 nM. `Oc1cc(-c2ncc3c(N4CC5CCC(C4)N5)nc(OCC45CCCCN4CCC5)nc3c2F)c2ccccc2c1` (centres unmarked) [Example 463, 4-(4-(3,8-diazabicyclo[3.2.1]octan-3-yl)-8-fluoro-2-((octahydroindolizin-8a-yl)methoxy)pyrido[4,3-d]pyrimidin-7-yl)naphthalen-2-ol] returned a half-maximal inhibitory concentration (IC50) on KRas G12D [2] of 0.012 nM. Compound `Fc1ccc2cccc(-c3ncc4c(N5C[C@H]6CC[C@@H](C5)N6)nc(OCC56CCCN5CCC6)nc4c3F)c2c1F` [Example 464, 4-((1R,5S)-3,8-diazabicyclo[3.2.1]octan-3-yl)-7-(7,8-difluoronaphthalen-1-yl)-8-fluoro-2-((hexahydro-1H-pyrrolizin-7a-yl)methoxy)pyrido[4,3-d]pyrimidine] yielded a concentration for half-maximal inhibition (IC50) on KRas G12D [2] of 0.007 nM.

On KRas G12D [2], `CCc1cccc2cccc(-c3ncc4c(N5C[C@H]6CC[C@@H](C5)N6)nc(OC[C@@]56CCCN5C[C@H](F)C6)nc4c3F)c12` [Example 465, 4-((1R,5S)-3,8-diazabicyclo[3.2.1]octan-3-yl)-7-(8-ethylnaphthalen-1-yl)-8-fluoro-2-(((2R,7aS)-2-fluorohexahydro-1H-pyrrolizin-7a-yl)methoxy)pyrido[4,3-d]pyrimidine] gave an IC50 of 0.001 nM. As for `CCc1cccc2cccc(-c3ncc4c(N5CC6CCC(C5)N6)nc(OC[C@@]56C[C@H](O)CN5C[C@H](O)C6)nc4c3F)c12` [Example 466, (2R,6S,7as)-7a-(((4-((1R,5S)-3,8-diazabicyclo[3.2.1]octan-3-yl)-7-(8-ethylnaphthalen-1-yl)-8-fluoropyrido[4,3-d]pyrimidin-2-yl)oxy)methyl)hexahydro-1H-pyrrolizine-2,6-diol], the half-inhibitory concentration (IC50) on KRas G12D [2] was 0.006 nM. For `[2H]C1([2H])CC[C@@]2(C([2H])([2H])Oc3nc(N4C[C@H]5CC[C@@H](C4)N5)c4cnc(-c5cc(O)cc6cccc(CC)c56)c(F)c4n3)C[C@@H](F)CN12` [Example 480, 4-(4-((1R,5S)-3,8-diazabicyclo[3.2.1]octan-3-yl)-8-fluoro-2-(((2R,7aS)-2-fluorotetrahydro-1H-pyrrolizin-7a(5H)-yl-5,5-d2)methoxy-d2)pyrido[4,3-d]pyrimidin-7-yl)-5-ethylnaphthalen-2-ol], on KRas G12D [2], the IC50 was under 0.002 nM.
